Drawing on patent US12371430B2, “5-morpholin-4-yl-pyrazolo[4,3-b]pyridine derivatives” (Merck Patent GmbH, priority 2018, dated 2025), this text covers IC50 for 18 compounds.

Assay [1] relates to phosphorylation of Chk1 (Ser 345) in HT29 colon adenocarcinoma cells. The assay can be described thus: pCHK1 cellular assay. Type of assay: cell-based. Conditions: Homo sapiens, HT-29, hydroxyurea 3 mM, 4 h. The source says:
Chk1 kinase acts downstream of ATR and has a key role in DNA damage checkpoint control. Activation of Chk1 involves phosphorylation of Ser317 and Ser345 (regarded as the preferential target for phosphorylation/activation by ATR) and occurs in response to blocked DNA replication and certain forms of genotoxic stress. Phosphorylation at Ser 345 serves to localize Chk1 to the nucleus following checkpoint activation.
This assay measures a decrease in phosphorylation of Chk1 (Ser 345) in HT29 colon adenocarcinoma cells following treatment with compound and hydroxyurea (which promotes fork stalling because of dNTP depletion) and using an immunocytochemical procedure and high content imaging.
For the assay HT29 cells are plated in culture medium (DMEM high Glucose (no phenol red), 2 mM Glutamax, 1 mM Pyruvate, 10% FCS into Greiner 384 well plates, black, μclear #781090 (2500 cells/well/30 μl) and incubated for at least 20 hours at 37° C., 10% CO2 and 90% rH. Diluted test compounds (1 nM-30 μM final) and hydroxyurea (3 mM final) are added simultaneously and cells are incubated for 4 h at 37° C. After fixation/prmeabilisation with 100% MeOH (−20° C. cold) and permeabilisation with 0.2% Triton X-100 a complete immunocytochemical procedure is performed using a specific anti-pChk1 antibody (Cell Signaling, #2348BF) and fluorescently labelled secondary antibody (Alexa Fluor® 488 goat anti-rabbit F(ab′)2 fragment, Invitrogen A11070) and parallel nuclear staining for cell counting.
The nuclear localised pChk1 signal is detected on an ImageXpress Ultra confocal high content reader and reported as % positive cells (nuclei).

A further assay deals with ATR/ATRIP (Homo sapiens (Human), UniProt Q13535). Briefly: ATR/ATRIP kinase assay (TR-FRET, p53 Ser15 phosphorylation). It counts as biochemical. Conditions: 0.5 μM ATP, 50 nM p53. The method, then:
ATR/ATRIP Kinase Assay—Measurement of ATR/ATRIP Inhibition
The IC50 value was determined by an ATR/ATRIP enzymatic assay. The assay comprises two steps: the enzymatic reaction and the detection step. First, a mixture of ATR/ATRIP protein (Ataxia Telangiectasia and Rad3-related protein/ATR interacting protein), the compound in question at different concentrations, p53 as substrate protein and adenosine triphosphate (ATP) are incubated in assay buffer. ATR phosporylates p53 at Ser15 and other residues. The amount of phosphorylated p53 is then detected using specific antibodies and the TR-FRET assay technology.
In detail: The ATR/ATRIP enzymatic assay is performed as a TR-FRET-(HTRF™, Cisbio Bioassays) based 384-well assay. In a first step, purified human recombinant ATR/ATRIP (human ATR, full length, GenBank ID: NM_001184.3, and human ATRIP, full length, GenBank ID AF451323.1, co-expressed in a mammalian cell line) is incubated in assay buffer for 15 minutes at 22° C. with test compound at different concentrations or without test compound (as a negative control). The assay buffer contains 25 mM HEPES pH 8.0, 10 mM Mg(CH3COO)2, 1 mM MnCl2, 0.1% BSA, 0.01% Brij® 35, and 5 mM dithiothreitol (DTT). An Echo 555 (Labcyte) is used for dispensing of compound solutions. Then, in a second step, purified human recombinant cmyc-tagged p53 (human p53, full length, GenBank ID: BC003596, expressed in Sf21 insect cells) and ATP are added and the reaction mixture is incubated for 25-35 minutes, typically 25 minutes, at 22° C. The pharmacologically relevant assay volume is 5 μl. The final concentrations in the assay during incubation of the reaction mixture are 0.3-0.5 nM, typically 0.3 nM, ATR/ATRIP, 50 nM p53, and 0.5 μM ATP. The enzymatic reaction is stopped by the addition of EDTA. The generation of phosphorylated p53 as a result of the ATR mediated reaction in the presence of ATP is detected by using specific antibodies [labeled with the fluorophores europium (Eu) as donor and d2 as acceptor (Cisbio Bioassays)] enabling FRET. For this purpose, 2 μl of antibody-containing stop solution (12.5 mM HEPES pH 8.0, 125 mM EDTA, 30 mM sodium chloride, 300 mM potassium fluoride, 0.006% Tween-20, 0.005% Brij® 35, 0.21 nM anti-phospho-p53(Ser15)-Eu antibody, 15 nM anti-cmyc-d2 antibody) are added to the reaction mixture. Following signal development for 2 h the plates are analyzed in an EnVision (PerkinElmer) microplate reader using the TRF mode with laser excitation. Upon excitation of the donor europium at 340 nm the emitted fluorescence light of the acceptor d2 at 665 nm as well as from the donor Eu at 615 nm are measured. The amount of phosphorylated p53 is directly proportional to the ratio of the amounts of emitted light i.e. the ratio of the relative fluorescence units (rfu) at 665 nm and 615 nm. Data are processed employing the Genedata Screener software. In particular, IC50 values are determined in the usual manner by fitting a dose-response curve to the data points using nonlinear regression analysis. • IC50=half maximal inhibitory concentration • ATP=Adenosine triphosphate • TR-FRET=Time-Resolved Fluorescence Resonance Energy Transfer • HTRF®=Homogeneous Time Resolved Fluorescence • HEPES=2-(4-(2-Hydroxyethyl)-1-piperazinyl)-ethanesulfonic acid • Mg(CH3COO)2=Magnesium acetate • MnCl2=Manganese(II)-chloride • BSA=Bovine Serum Albumin • EDTA=Ethylendiamine Tetraacetate • TRF=Time Resolved Fluorescence pCHK1 Cellular Assay

ATR/ATRIP, sequence (Q13535 whole entry): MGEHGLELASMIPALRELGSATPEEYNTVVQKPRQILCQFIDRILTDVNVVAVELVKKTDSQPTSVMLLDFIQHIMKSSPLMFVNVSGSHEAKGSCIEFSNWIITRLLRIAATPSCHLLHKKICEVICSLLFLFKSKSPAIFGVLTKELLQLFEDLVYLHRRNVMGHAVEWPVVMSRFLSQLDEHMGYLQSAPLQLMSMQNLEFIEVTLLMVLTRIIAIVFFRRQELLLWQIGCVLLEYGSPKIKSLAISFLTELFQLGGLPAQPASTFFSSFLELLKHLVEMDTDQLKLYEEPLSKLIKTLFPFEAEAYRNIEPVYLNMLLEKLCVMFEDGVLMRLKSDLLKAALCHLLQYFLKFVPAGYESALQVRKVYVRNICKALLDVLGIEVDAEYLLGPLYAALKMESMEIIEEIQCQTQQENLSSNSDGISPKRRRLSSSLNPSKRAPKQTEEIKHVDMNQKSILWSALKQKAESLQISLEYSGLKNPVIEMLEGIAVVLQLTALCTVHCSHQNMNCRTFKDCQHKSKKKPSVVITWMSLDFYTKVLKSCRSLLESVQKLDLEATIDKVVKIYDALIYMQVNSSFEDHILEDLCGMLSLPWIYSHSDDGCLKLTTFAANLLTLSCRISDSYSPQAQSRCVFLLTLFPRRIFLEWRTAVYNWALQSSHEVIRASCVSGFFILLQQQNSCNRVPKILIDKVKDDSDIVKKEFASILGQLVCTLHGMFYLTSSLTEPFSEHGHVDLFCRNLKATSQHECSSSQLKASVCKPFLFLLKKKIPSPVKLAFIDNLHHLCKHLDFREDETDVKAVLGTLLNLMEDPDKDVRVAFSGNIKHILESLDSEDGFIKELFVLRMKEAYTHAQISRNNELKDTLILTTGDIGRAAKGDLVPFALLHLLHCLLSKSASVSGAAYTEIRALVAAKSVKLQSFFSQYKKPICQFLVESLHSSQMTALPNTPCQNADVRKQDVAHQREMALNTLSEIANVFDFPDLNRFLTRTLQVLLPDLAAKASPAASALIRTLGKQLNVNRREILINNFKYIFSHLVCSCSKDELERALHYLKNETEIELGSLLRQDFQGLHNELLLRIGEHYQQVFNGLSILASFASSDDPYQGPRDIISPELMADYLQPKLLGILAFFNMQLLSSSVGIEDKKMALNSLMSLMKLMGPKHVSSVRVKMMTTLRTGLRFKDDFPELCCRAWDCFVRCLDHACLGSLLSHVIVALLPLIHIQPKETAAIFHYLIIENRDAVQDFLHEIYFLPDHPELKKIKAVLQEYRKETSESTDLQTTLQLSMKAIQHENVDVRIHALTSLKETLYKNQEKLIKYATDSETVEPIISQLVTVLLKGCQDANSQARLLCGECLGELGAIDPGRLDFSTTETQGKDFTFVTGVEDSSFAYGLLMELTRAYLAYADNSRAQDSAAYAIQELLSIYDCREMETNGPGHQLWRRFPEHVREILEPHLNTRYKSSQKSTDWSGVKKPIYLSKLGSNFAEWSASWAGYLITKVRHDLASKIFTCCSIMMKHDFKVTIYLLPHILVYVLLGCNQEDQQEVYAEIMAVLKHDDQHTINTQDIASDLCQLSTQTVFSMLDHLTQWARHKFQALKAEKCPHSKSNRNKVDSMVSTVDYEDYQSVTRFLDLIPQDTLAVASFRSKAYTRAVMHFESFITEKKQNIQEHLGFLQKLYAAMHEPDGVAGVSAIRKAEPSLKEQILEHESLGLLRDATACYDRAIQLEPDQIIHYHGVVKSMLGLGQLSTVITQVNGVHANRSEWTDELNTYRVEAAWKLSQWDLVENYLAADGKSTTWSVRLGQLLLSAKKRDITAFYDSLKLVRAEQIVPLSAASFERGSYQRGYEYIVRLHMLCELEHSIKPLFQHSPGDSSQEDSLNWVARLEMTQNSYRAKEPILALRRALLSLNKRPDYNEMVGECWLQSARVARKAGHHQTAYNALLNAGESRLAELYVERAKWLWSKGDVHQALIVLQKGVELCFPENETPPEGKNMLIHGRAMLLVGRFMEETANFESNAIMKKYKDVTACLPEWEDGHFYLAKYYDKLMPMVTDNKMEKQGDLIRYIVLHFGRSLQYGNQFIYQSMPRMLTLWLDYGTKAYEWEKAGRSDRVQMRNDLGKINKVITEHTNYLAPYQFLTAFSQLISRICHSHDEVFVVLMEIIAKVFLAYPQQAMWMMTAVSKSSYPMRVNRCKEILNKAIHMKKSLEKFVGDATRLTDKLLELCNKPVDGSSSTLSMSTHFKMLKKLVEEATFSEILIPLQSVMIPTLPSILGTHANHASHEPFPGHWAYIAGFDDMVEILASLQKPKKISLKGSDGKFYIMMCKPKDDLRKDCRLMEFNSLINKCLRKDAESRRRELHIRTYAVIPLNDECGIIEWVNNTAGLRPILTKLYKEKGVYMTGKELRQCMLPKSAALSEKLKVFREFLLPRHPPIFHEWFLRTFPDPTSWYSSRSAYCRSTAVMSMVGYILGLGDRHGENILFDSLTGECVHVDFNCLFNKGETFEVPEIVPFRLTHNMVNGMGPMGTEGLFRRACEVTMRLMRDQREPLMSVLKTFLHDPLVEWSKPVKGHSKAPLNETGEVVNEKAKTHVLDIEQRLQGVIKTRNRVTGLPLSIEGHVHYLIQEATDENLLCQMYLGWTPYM
ATR/ATRIP, sequence (Q8WXE1 whole entry partner): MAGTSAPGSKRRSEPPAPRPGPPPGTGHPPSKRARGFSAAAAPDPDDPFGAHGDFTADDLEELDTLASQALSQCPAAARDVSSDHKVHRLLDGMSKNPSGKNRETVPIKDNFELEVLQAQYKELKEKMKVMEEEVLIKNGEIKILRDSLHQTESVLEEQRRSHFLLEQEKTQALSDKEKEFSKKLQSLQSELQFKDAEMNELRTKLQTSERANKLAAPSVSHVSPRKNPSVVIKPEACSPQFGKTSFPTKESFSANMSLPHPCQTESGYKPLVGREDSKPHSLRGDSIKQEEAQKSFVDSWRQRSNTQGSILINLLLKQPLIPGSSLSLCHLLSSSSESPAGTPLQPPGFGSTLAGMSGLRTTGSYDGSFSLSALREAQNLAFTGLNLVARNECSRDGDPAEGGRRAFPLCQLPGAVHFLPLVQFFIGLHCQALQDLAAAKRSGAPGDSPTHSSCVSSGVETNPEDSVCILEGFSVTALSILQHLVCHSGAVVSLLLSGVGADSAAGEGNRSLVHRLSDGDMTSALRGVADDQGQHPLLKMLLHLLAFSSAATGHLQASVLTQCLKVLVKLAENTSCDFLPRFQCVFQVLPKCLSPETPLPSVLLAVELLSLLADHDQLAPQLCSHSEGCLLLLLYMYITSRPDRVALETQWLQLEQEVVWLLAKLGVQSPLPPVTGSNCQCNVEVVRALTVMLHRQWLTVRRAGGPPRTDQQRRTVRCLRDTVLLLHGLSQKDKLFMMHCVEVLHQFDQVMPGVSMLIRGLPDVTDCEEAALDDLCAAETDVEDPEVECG

On to `Cc1cnccc1-c1cc(N2CCOC[C@H]2C)nc2c(-c3cc[nH]n3)nn(C)c12` [Compound 23, 1-Methyl-5-((R)-3-methyl-morpholin-4-yl)-7-(3-methyl-pyridin-4-yl)-3-(1H-pyrazol-3-yl)-1H-pyrazolo[4,3-b]pyridine], for which the 50% inhibitory concentration (IC50) was 0.01 to 0.1 µM in assay [1] and 0.001 µM against ATR/ATRIP.
On the same counts, the results for `C[C@@H]1COCCN1c1cc(CO)c2c(n1)c(-c1cc[nH]n1)nn2C` [Compound 24, [1-Methyl-5-((R)-3-methyl-morpholin-4-yl)-3-(1H-pyrazol-3-yl)-1H-pyrazolo[4,3-b]pyridin-7-yl]-methanol] are 0.1 to 1 µM and 0.028 µM.
For `C[C@@H]1COCCN1c1cc(C(=O)N(C)C)c2[nH]nc(-c3cc[nH]n3)c2n1` [Compound 27, 5-((R)-3-Methyl-morpholin-4-yl)-3-(1H-pyrazol-3-yl)-1H-pyrazolo[4,3-b]pyridine-7-carboxylic acid dimethylamide] the same measures were 0.1 to 1 µM and 0.01 µM.
For `CNC(=O)c1cc(N2CCOC[C@H]2C)nc2c(-c3cc[nH]n3)n[nH]c12` [Compound 28, 5-((R)-3-Methyl-morpholin-4-yl)-3-(1H-pyrazol-3-yl)-1H-pyrazolo[4,3-b]pyridine-7-carboxylic acid methylamide], the concentration for half-maximal inhibition (IC50) in assay [1] is 0.1 to 1 µM; against ATR/ATRIP it was 0.0053 µM.
`C[C@@H]1COCCN1c1cc(C(N)=O)c2[nH]nc(-c3cc[nH]n3)c2n1` [Compound 29, 5-((R)-3-Methyl-morpholin-4-yl)-3-(1H-pyrazol-3-yl)-1H-pyrazolo[4,3-b]pyridine-7-carboxylic acid amide]: the concentration for half-maximal inhibition (IC50) in assay [1] was 1 to 10 µM; against ATR/ATRIP, 0.0054 µM.
For `C[C@@H]1COCCN1c1cc(C(=O)N(C)C)c2c(n1)c(-c1cc[nH]n1)nn2C` [Compound 30, 1-Methyl-5-((R)-3-methyl-morpholin-4-yl)-3-(1H-pyrazol-3-yl)-1H-pyrazolo[4,3-b]pyridine-7-carboxylic acid dimethylamide] the same measures were 0.1 to 1 µM and 0.015 µM.
For `CNC(=O)c1cc(N2CCOC[C@H]2C)nc2c(-c3cc[nH]n3)nn(C)c12` [Compound 31, 1-Methyl-5-((R)-3-methyl-morpholin-4-yl)-3-(1H-pyrazol-3-yl)-1H-pyrazolo[4,3-b]pyridine-7-carboxylic acid methylamide] the same measures were 0.1 to 1 µM and 0.033 µM.
On the same counts, the results for `C[C@@H]1COCCN1c1cc(C(N)=O)c2c(n1)c(-c1cc[nH]n1)nn2C` [Compound 32, 1-Methyl-5-((R)-3-methyl-morpholin-4-yl)-3-(1H-pyrazol-3-yl)-1H-pyrazolo[4,3-b]pyridine-7-carboxylic acid amide] are 1 to 10 µM and 0.02 µM.
With `Cc1cccc(-c2cc(N3CCOC[C@H]3C)nc3c(-c4cc[nH]n4)nn(C)c23)n1` [Compound 33, 1-Methyl-5-((R)-3-methyl-morpholin-4-yl)-7-(6-methyl-pyridin-2-yl)-3-(1H-pyrazol-3-yl)-1H-pyrazolo[4,3-b]pyridine], the IC50 in assay [1] was 0.1 to 1 µM; against ATR/ATRIP it was 0.016 µM.
On the same counts, the results for `C[C@@H]1COCCN1c1cc(-c2ccn(CCO)n2)c2c(n1)c(-c1cc[nH]n1)nn2C` [Compound 37, 2-{3-[1-Methyl-5-((R)-3-methyl-morpholin-4-yl)-3-(1H-pyrazol-3-yl)-1H-pyrazolo[4,3-b]pyridin-7-yl]-pyrazol-1-yl}-ethanol] are 0.1 to 1 µM and 0.0079 µM.
For `C[C@@H]1COCCN1c1cc(-c2ccccn2)c2[nH]nc(-c3cc[nH]n3)c2n1` [Compound 38, (3R)-3-Methyl-4-[3-(1H-pyrazol-3-yl)-7-(pyridin-2-yl)-1H-pyrazolo[4,3-b]pyridin-5-yl]morpholine] the same measures were 0.1 to 1 µM and 0.0043 µM.
As to `Cc1cccnc1-c1cc(N2CCOC[C@H]2C)nc2c(-c3cc[nH]n3)n[nH]c12` [Compound 39, (3R)-3-Methyl-4-[7-(3-methylpyridin-2-yl)-3-(1H-pyrazol-3-yl)-1H-pyrazolo[4,3-b]pyridin-5-yl]morpholine], the IC50 in assay [1] is 0.1 to 1 µM; at ATR/ATRIP, 0.0079 µM.
For `CC(C)n1nc(-c2cc[nH]n2)c2nc(N3CCOC[C@H]3C)cc(-c3ccc(S(C)(=O)=O)cc3)c21` [Compound 41, (3R)-4-[7-(4-Methanesulfonylphenyl)-1-(propan-2-yl)-3-(1H-pyrazol-3-yl)-1H-pyrazolo[4,3-b]pyridin-5-yl]-3-methylmorpholine], the IC50 in assay [1] is 0.01 to 0.1 µM; on ATR/ATRIP, 0.0013 µM.
On the same counts, the results for `C[C@@H]1COCCN1c1cc(C2CC2)c2c(n1)c(-c1ccn[nH]1)nn2C` [Compound 43, 7-Cyclopropyl-1-methyl-5-((R)-3-methyl-morpholin-4-yl)-3-(2H-pyrazol-3-yl)-1H-pyrazolo[4,3-b]pyridine] are 0.1 to 1 µM and 0.0039 µM.
For `CC(C)Oc1cc(N2CCOC[C@H]2C)nc2c(-c3ccn[nH]3)nn(C)c12` [Compound 44, 7-Isopropoxy-1-methyl-5-((R)-3-methyl-morpholin-4-yl)-3-(2H-pyrazol-3-yl)-1H-pyrazolo[4,3-b]pyridine] the same measures were 0.1 to 1 µM and 0.0042 µM.
In the case of `C[C@@H]1COCCN1c1ccc2c(n1)c(-c1cc[nH]n1)nn2-c1ccc(S(C)(=O)=O)cc1` [Compound 46, 1-(4-Methanesulfonyl-phenyl)-5-((R)-3-methyl-morpholin-4-yl)-3-(1H-pyrazol-3-yl)-1H-pyrazolo[4,3-b]pyridine], the figures for the IC50 (in assay [1]; against ATR/ATRIP) were 1 to 10 µM and 0.025 µM, respectively.
On the same counts, the results for `C[C@@H]1COCCN1c1ccc2c(n1)c(-c1cc[nH]n1)nn2-c1cccc(S(C)(=O)=O)c1` [Compound 47, 1-(3-Methanesulfonyl-phenyl)-5-((R)-3-methyl-morpholin-4-yl)-3-(1H-pyrazol-3-yl)-1H-pyrazolo[4,3-b]pyridine] are 1 to 10 µM and 0.089 µM.
On the same counts, the results for `COCc1ccc(-c2cc(N3CCOC[C@H]3C)nc3c(-c4cc[nH]n4)nn(C)c23)cc1` [Compound 51, (3R)-4-{7-[4-(Methoxymethyl)phenyl]-1-methyl-3-(1H-pyrazol-3-yl)-1H-pyrazolo[4,3-b]pyridin-5-yl}-3-methylmorpholine] are 0.1 to 1 µM and 0.0012 µM.

For orientation: IC50 means the concentration that gives 50% inhibition. Higher therefore signals lower potency.
